Among the data in PubChem BioAssay (NCI) are GI50 and TGI values, retold here.

“And” between values parts separate entries of the source, which are not always exact repeats. Equal entries are not always repeated.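 Grown in 96-well plates, cells were treated for 48 hours with each compound at five concentrations. Insufficient inhibition: endpoint recorded as highest concentration tested. GI50 is the concentration that inhibits growth by half. At the TGI there is no net growth.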

Test systems include HOP-92 NSCLC; BT-549 breast; SK-MEL-28 melanoma; MOLT-4 leukemia; SR leukemia; HCT-15 colon; MDA-MB-435; HL-60(TB) leukemia; SF-268 CNS; A498 renal.
Experiment in all cases: growth of human tumour cells (NCI), 48 h

In the case of `CN1C(=O)N[C@H]2[C@@H]3NC(=O)c4ccc(Br)n4[C@@H]3C[C@]21O`, the GI50 was 0.0955 µM in the experiment on HOP-92 NSCLC; 0.0739 µM with BT-549 breast; 0.0317 µM with SK-MEL-28 melanoma; 0.0704 µM with MOLT-4 leukemia; 0.0335 µM in the experiment on SR leukemia; 0.979 µM in the experiment on HCT-15 colon. Besides, the GI50 with MDA-MB-435 was 0.156 µM; in the experiment with HL-60(TB) leukemia it was 0.0324 µM; with SF-268 CNS, 0.115 µM; in the experiment on A498 renal, 0.27 µM. In addition, the TGI came to 1.28 µM in the experiment with HOP-92 NSCLC; 0.405 µM with BT-549 breast; 0.262 µM in the experiment on SK-MEL-28 melanoma; 0.351 µM in the experiment on MOLT-4 leukemia; 0.639 µM with SR leukemia; 8.49 µM in the experiment with HCT-15 colon. Also, the TGI in the experiment on MDA-MB-435 is 1.72 µM; in the experiment with HL-60(TB) leukemia, 0.132 µM; with SF-268 CNS it was 2.63 µM; with A498 renal it was 1.17 µM.
In the case of `Cc1sc2c(c1C)C(c1ccc(Cl)cc1)=N[C@@H](CC(=O)OC(C)(C)C)c1nnc(C)n1-2`, the GI50 is 0.0319 µM and 0.0183 µM with HOP-92 NSCLC; 1.15 µM and 3.1 µM with BT-549 breast; 1.98 µM and 0.397 µM in the experiment with SK-MEL-28 melanoma; 1.61 µM and 1.81 µM in the experiment with MOLT-4 leukemia; 0.229 µM and 0.0451 µM with SR leukemia; 0.308 µM and 0.157 µM in the experiment on HCT-15 colon. Further, the GI50 with MDA-MB-435 is 0.348 µM and 0.135 µM; with HL-60(TB) leukemia it was 0.118 µM and 0.0301 µM; with SF-268 CNS, 11.5 µM and 4.73 µM; in the experiment on A498 renal it was 0.267 µM and 0.0617 µM. For the same compound, the TGI in the experiment with HOP-92 NSCLC was 0.39 µM and 0.29 µM; in the experiment with BT-549 breast, 20.8 µM and 20 µM; with SK-MEL-28 melanoma it was 20.2 µM and 15.2 µM; in the experiment with MOLT-4 leukemia, 23 µM and 17.8 µM; in the experiment on SR leukemia, 18.7 µM and 17.1 µM; in the experiment with HCT-15 colon, 13.4 µM and 13.7 µM. Besides, the TGI in the experiment with MDA-MB-435 is 20.3 µM and 17 µM; in the experiment with SF-268 CNS, 26.2 µM and 21.8 µM; in the experiment on A498 renal, 1.46 µM and 1.15 µM.
Regarding `Cc1cccc(C)c1NC(=O)Nc1ccc(S(N)(=O)=O)cc1`, the TGI in the experiment on HOP-92 NSCLC, in the experiment on BT-549 breast, with SK-MEL-28 melanoma, in the experiment with MOLT-4 leukemia, in the experiment with SR leukemia and with HCT-15 colon was more than 100 µM throughout. Also, the TGI in the experiment with MDA-MB-435, with HL-60(TB) leukemia, in the experiment with SF-268 CNS and with A498 renal was more than 100 µM each time.
Consider `CN/N=C(\C)C(CN(C)C)C(c1ccccc1)c1c(O)c2ccccc2oc1=O` (centres undefined), for which the TGI in the experiment with HOP-92 NSCLC is 6.78 µM; in the experiment with BT-549 breast, more than 100 µM; with SK-MEL-28 melanoma it was more than 100 µM; in the experiment on MOLT-4 leukemia, more than 100 µM; in the experiment on SR leukemia, more than 100 µM; with HCT-15 colon, more than 100 µM. The TGI in the experiment with MDA-MB-435, in the experiment with HL-60(TB) leukemia, in the experiment with SF-268 CNS and with A498 renal was more than 100 µM throughout.
With `CCCC(CCC)C(=O)OCC1(CO)C/C(=C\c2ccc(F)cc2)C(=O)O1` (centres undefined), the GI50 was 0.487 µM in the experiment with HOP-92 NSCLC; 7.25 µM in the experiment on BT-549 breast; 14.7 µM with SK-MEL-28 melanoma; 3.54 µM with MOLT-4 leukemia; 6.55 µM with SR leukemia; 12.5 µM with HCT-15 colon. In addition, the GI50 in the experiment with MDA-MB-435 was 2.43 µM; in the experiment with HL-60(TB) leukemia, 0.907 µM; with SF-268 CNS it was 13.2 µM; in the experiment on A498 renal, 1.46 µM. The TGI in the experiment with HOP-92 NSCLC stood at 12.5 µM; with BT-549 breast, 22.6 µM; in the experiment with SK-MEL-28 melanoma it was 28 µM; in the experiment on MOLT-4 leukemia, 21.4 µM; in the experiment on SR leukemia, 25.4 µM; in the experiment with HCT-15 colon, 26.2 µM. The TGI amounted to 20.9 µM in the experiment with MDA-MB-435, 8.36 µM with HL-60(TB) leukemia, 26.7 µM in the experiment on SF-268 CNS and 12.4 µM with A498 renal.
Consider `COc1cccc(/C=C/C(=O)c2ccc(Cl)cc2Cl)c1`, for which the GI50 in the experiment with HOP-92 NSCLC is 0.0134 µM; with BT-549 breast, 11 µM; in the experiment with SK-MEL-28 melanoma, 12.9 µM; with MOLT-4 leukemia, 0.773 µM; in the experiment on SR leukemia, 0.833 µM; in the experiment on HCT-15 colon, 13.9 µM. Further, the GI50 was 11.1 µM in the experiment with MDA-MB-435, 8.9 µM with HL-60(TB) leukemia, 11.2 µM in the experiment with SF-268 CNS and 11.9 µM with A498 renal. In addition, the TGI was 9.44 µM in the experiment with HOP-92 NSCLC; 22.4 µM in the experiment with BT-549 breast; 30.2 µM in the experiment on SK-MEL-28 melanoma; more than 50 µM in the experiment with MOLT-4 leukemia; more than 50 µM in the experiment with SR leukemia; more than 50 µM in the experiment on HCT-15 colon. Moreover, the TGI with MDA-MB-435 was 28.6 µM; in the experiment on HL-60(TB) leukemia, more than 50 µM; in the experiment with SF-268 CNS, 27.4 µM; with A498 renal it was 21 µM.
In the case of `Cc1cc(CC(C)CC(C)(C)C)n(O)c(=O)c1` (centres undefined) (tested in a mixture with another compound), the GI50 is 0.174 µM in the experiment with HOP-92 NSCLC; 0.351 µM in the experiment with BT-549 breast; 0.548 µM in the experiment on SK-MEL-28 melanoma; 0.246 µM with MOLT-4 leukemia; 0.286 µM in the experiment on SR leukemia; 0.459 µM in the experiment with HCT-15 colon. Moreover, the GI50 with MDA-MB-435 is 0.559 µM; with HL-60(TB) leukemia, 0.189 µM; with SF-268 CNS, 0.409 µM; in the experiment with A498 renal it was 0.944 µM. The TGI with HOP-92 NSCLC is 1.88 µM; in the experiment with BT-549 breast, 3.25 µM; in the experiment with SK-MEL-28 melanoma, more than 63.2 µM; in the experiment on MOLT-4 leukemia it was 0.714 µM; with SR leukemia, 2.97 µM; in the experiment with HCT-15 colon, more than 100 µM. Also, the TGI in the experiment on MDA-MB-435 was found to be 24.9 µM; in the experiment on HL-60(TB) leukemia it was 0.525 µM; with SF-268 CNS, 16.1 µM; with A498 renal, 10.3 µM.
Take `O=C(O)C(Cl)(c1ccccc1)c1ccccc1`: the TGI in the experiment on HOP-92 NSCLC, in the experiment on BT-549 breast, with SK-MEL-28 melanoma, in the experiment with MOLT-4 leukemia, in the experiment on SR leukemia and in the experiment on HCT-15 colon was more than 100 µM throughout. In addition, the TGI with MDA-MB-435, in the experiment on HL-60(TB) leukemia, in the experiment on SF-268 CNS and in the experiment with A498 renal was more than 100 µM throughout.
As to `CC[N+]1(C)CCC(O)(c2ccc(OC)cc2)C(C(=O)c2ccc(OC)cc2)C1` (centres undefined), the TGI in the experiment on HOP-92 NSCLC is 6.79 µM; in the experiment with BT-549 breast, 32.3 µM; in the experiment on SK-MEL-28 melanoma it was 29.3 µM; in the experiment with MOLT-4 leukemia, more than 21.1 µM; in the experiment with SR leukemia it was 5.61 µM; with HCT-15 colon, 25.3 µM. Further, the TGI in the experiment on MDA-MB-435 worked out at 31.1 µM; in the experiment with HL-60(TB) leukemia, 8.9 µM; in the experiment with SF-268 CNS it was 56 µM; in the experiment on A498 renal, 32.6 µM.
